Experimental data published in patent publication US6787315B2, “Methods for identifying ligand binding sites in a biomolecule” (priority 2001, dated 2004).

Experiments:
[1] = system: modified 16S RNA (5′-PS-G1491; 3′-phosphorothioate at G1491, C12O6 PEG mass tag); assay: ESI-FT-ICR MS ligand binding to 27-mer 16S RNA modified at G1491; design: species or system E. coli
Procedure: (§1) The following examples illustrate preferred embodiments of the present invention using mass spectrometry. Experiments were performed using a 7.0 Tesla Fourier transform ion cyclotron resonance (FT-ICR) mass spectrometer with an electrospray ionization source operating in the negative mode. A −3000 V difference was employed between the spray tip and the inlet capillary to generate the electrospray. Samples were introduced at a flow rate of 1.5 uL/min using a Harvard syringe pump and a 50 uL glass syringe. The desolvation of the electrospray droplets was aided by a flow of countercurrent gas at 1 L/min. Ions were accumulated for 1.0 sec in an intermediate hexapole ion storage region at 1.0×10^−5 mbar. Following transfer to the FT-ICR analysis cell, the image current was measured over a mass range of 500-4000 m/z. Typically, a total of 32 transients containing 512 kbytes were summed prior to Fourier transformation. The m/z values were calibrated on the signal from the [M-5H^+]^5− charge state of the free RNA at 1726.509.
An aqueous solution containing 100 mM ammonium acetate buffer (pH 7.0), 33% isopropyl alcohol, gentamicin (1 μM), 16S RNA (5 μM) and a modified 16S RNA (5.5 μM) was prepared. Modified 27-mer 16S RNA contained a 3′-phosphorothioate residue at position G1491 at the position of a G-C base pair (E. coli numbering system) and a C12O6 PEG mass tag off the 5′-hydroxyl group. Mass spectra were obtained using the standard protocol described above. The resulting mass spectra contained identifiable peaks corresponding to free 16S RNA (m/z 1726.5), free modified 16S RNA(5′-PS-G1491; m/z 1779.3), 16S complexed with the three forms of gentamicin present in the sample (16S+genta; m/z 1816-1825), and 16S(5′-PS-G1491) complexed with the three forms of gentamicin (5′-PS-G1491+genta; m/z 1869-1875). The peaks from the complexes formed from the lowest mass form of gentamicin were integrated and ion abundances determined. Fractions of 16S+genta and 5′-PS-G1491+genta complexes were determined to be 0.127 and 0.140±0.01% for the free 16S RNA and 5′-PS-G1491 RNA, respectively.
An aqueous solution containing 100 mM ammonium acetate buffer (pH 7.0), 33% isopropyl alcohol, ribostamycin (1 μM), 16S RNA (5 μM) and a modified 16S RNA (5.5 uM) was prepared. Modified 27 mer 16S RNA contained a 3′-phosphorothioate residue at position G1491 at the position of a G-C base pair (E. coli numbering system) and a C12O6 PEG mass tag off the 5′-hydroxyl group. […] The peaks from the complexes formed between ribostamycin and the RNA were integrated and ion abundances determined. Fractions of 16S+ribost and 5′-PS-G1491+ribost complexes were determined to be 0.105 and 0.100±0.005% for the free 16S RNA and 5′-PS-G1491 RNA, respectively.

[2] = system: 16S RNA (27-mer RNA model of the prokaryotic A-site 16S RNA); assay: ESI-FT-ICR MS ligand binding to unmodified 27-mer 16S RNA; design: species or system E. coli
Procedure: as §1
An aqueous solution containing 100 mM ammonium acetate buffer (pH 7.0), 33% isopropyl alcohol, gentamicin (2 μM, present in three forms), 16S RNA (2.5 μM) and a modified 16S RNA (2.5 μM) was prepared. Modified 27-mer 16S RNA contained a 5-iodouridine residue at position 13 in the UUCG tetraloop (See FIG. 1). The resulting mass spectra (see FIG. 3, upper spectrum) contained identifiable peaks corresponding to free 16S RNA (m/z 1726.5), free modified 16S RNA(5IUtetra; m/z 1750.7), 16S complexed with the three forms of gentamicin present in the sample (16S+genta; m/z 1816-1825), and 16S(5IUtetra) complexed with the three forms of gentamicin (5IUtetra+genta; m/z 1841-1849). The peaks were integrated and ion abundances determined. Fractions of 16S+genta and 5IUtetra+genta complexes were determined to be 70.4% and 68.2±1% for the free 16S RNA and 5IUtetraRNA, respectively.
An aqueous solution containing 100 mM ammonium acetate buffer (pH 7.0), 33% isopropyl alcohol, gentamicin (2 μM), 16S RNA (2.5 μM) and a modified 16S RNA (2.5 μM) was prepared. Modified 27-mer 16S RNA contained a 5-iodouridine residue at position U1406 at the position of a U-U mismatch base pair (E. coli numbering system). The resulting mass spectra (see FIG. 3, lower spectrum) contained identifiable peaks corresponding to free 16S RNA (m/z 1726.5), free modified 16S RNA(5IU1406; m/z 1750.7), 16S complexed with the three forms of gentamicin present in the sample (16S+genta; m/z 1816-1825), and 16S(5IU1406) complexed with the three forms of gentamicin (5IU1406+genta; m/z 1841-1849). The peaks were integrated and ion abundances determined. Fractions of 16S+genta and 5IU1406+genta complexes were determined to be 66.8% and 28.1±1% for the free 16S RNA and 5IU1406 RNA, respectively.
An aqueous solution containing 50 mM ammonium acetate buffer (pH 7.0), 33% isopropyl alcohol, ribostamycin (2.5 μM), 16S RNA (2.5 μM) and a modified 16S RNA (2.5 μM) was prepared. […] The resulting mass spectra (see FIG. 4) contained identifiable peaks corresponding to free 16S RNA (m/z 1726.5), free modified 16S RNA(5IU 1495; m/z 1821.4), 16S complexed with ribostamycin present in the sample (16S+ribost; m/z 1818.6), and 16S(5IU1495) complexed with ribostamycin (5IU1495+ribost; m/z 1912.3). The peaks were integrated and ion abundances determined. Fractions of 16S+ribost and 5IU1495+ribost complexes were determined to be 67.6% and 29.9±1% for the free 16S RNA and 5IU1495 RNA, respectively.
An aqueous solution containing 100 mM ammonium acetate buffer (pH 7.0), 33% isopropyl alcohol, gentamicin (1 μM), 16S RNA (5 μM) and a modified 16S RNA (5.5 μM) was prepared. Modified 27-mer 16S RNA contained a 3′-phosphorothioate residue at position G1491 at the position of a G-C base pair (E. coli numbering system) and a C12O6 PEG mass tag off the 5′-hydroxyl group. Mass spectra were obtained using the standard protocol described above. […]

[3] = Example 4: gentamicin 1 μM (lowest mass form integrated), 16S RNA 5 μM with 5′-PS-G1491 RNA 5.5 μM, 100 mM ammonium acetate pH 7.0, 33% isopropyl alcohol
[4] = Example 5: ribostamycin 1 μM, 16S RNA 5 μM with 5′-PS-G1491 RNA 5.5 uM, 100 mM ammonium acetate pH 7.0, 33% isopropyl alcohol

Row | Compound | Amount of 5′-PS-G1491+genta as % of the amount of 16S+genta ([1]; Example 4: gentamicin 1 μM) | Fraction of 5′-PS-G1491+genta complex [1, 3] | Fraction of 16S+genta complex ([2]; Example 1: gentamicin 2 μM (three forms), 16S RNA 2.5 μM with 5IUtetra RNA 2.5 μM, 100 mM ammonium acetate pH 7.0, 33% isopropyl alcohol) | Fraction of 16S+genta complex ([2]; Example 2: gentamicin 2 μM, 16S RNA 2.5 μM with 5IU1406 RNA 2.5 μM, 100 mM ammonium acetate pH 7.0, 33% isopropyl alcohol) | Fraction of 16S+genta complex [2, 3] | Fraction of 16S+genta complex ([2]; Example 6: gentamicin 1 μM (lowest mass form integrated), 16S RNA 5 μM with 5′-PS-A1492 RNA 5.5 μM, 100 mM ammonium acetate pH 7.0, 33% isopropyl alcohol) | Amount of 5′-PS-G1491+ribost as % of the amount of 16S+ribost ([1]; Example 5: ribostamycin 1 μM) | Fraction of 5′-PS-G1491+ribost complex [1, 4] | Fraction of 16S+ribost complex ([2]; Example 3: ribostamycin 2.5 μM, 16S RNA 2.5 μM with 5IU1495 RNA 2.5 μM, 50 mM ammonium acetate pH 7.0, 33% isopropyl alcohol) | Fraction of 16S+ribost complex [2, 4] | Fraction of 16S+ribost complex ([2]; Example 7: ribostamycin 1 μM, 16S RNA 5 μM with 5′-PS-A1492 RNA 5.5 μM, 100 mM ammonium acetate pH 7.0, 33% isopropyl alcohol)
1 | gentamicin | 110% | 0.140±0.01 fraction (unitless) | 70.4% | 66.8% | 0.127% | 0.121% |  |  |  |  | 
2 | NC[C@H]1O[C@H](O[C@H]2[C@H](O[C@@H]3O[C@H](CO)[C@@H](O)[C@H]3O)[C@@H](O)[C@H](N)C[C@@H]2N)[C@H](N)[C@@H](O)[C@@H]1O [ribostamycin] |  |  |  |  |  |  | 94% | 0.100±0.005% | 67.6% | 0.105% | 0.101%
